Results from ChEMBL document CHEMBL1201862, “PubChem BioAssay data set” (2004).
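Results reflect a 48-hour exposure of cells in 96-well plates to compound at five concentrations. GI50 is the concentration that inhibits growth by half.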 The source made the active and inactive calls. Cut-off read from the data, not from the text of the source: active = GI50 up to about 1.1 µM and inactive = higher.

Assays:
Test in all cases: growth of human tumour cells (NCI), 48 h
[1] = test system: 786-0
[2] = test system: ACHN
[3] = test system: CAKI-1
[4] = test system: CCRF-CEM
[5] = test system: COLO 205
[6] = test system: HOP-62
[7] = test system: Hs-578T
[8] = test system: MDA-MB-435
[9] = test system: MDA-N
[10] = test system: NCI/ADR-RES
[11] = test system: OVCAR-3
[12] = test system: OVCAR-4
[13] = test system: PC-3
[14] = test system: RPMI-8226
[15] = test system: SF-539
[16] = test system: SK-MEL-2
[17] = test system: SK-OV-3
[18] = test system: SW-620
[19] = test system: T47D
[20] = test system: UACC-62

| SMILES | GI50 [1] | GI50 [2] | GI50 [3] | GI50 [4] | GI50 [5] | GI50 [6] | GI50 [7] | GI50 [8] | GI50 [9] | GI50 [10] | GI50 [11] | GI50 [12] | GI50 [13] | GI50 [14] | GI50 [15] | GI50 [16] | GI50 [17] | GI50 [18] | GI50 [19] | GI50 [20] |
| --- | --- | --- | --- | --- | --- | --- | --- | --- | --- | --- | --- | --- | --- | --- | --- | --- | --- | --- | --- | --- |
| Cc1ccc(C)c(NC(=O)NCc2ccc(Cl)cc2)c1 | 20.6 µM (inactive) | 20.5 µM (inactive) | 27.2 µM (inactive) | 8.51 µM (inactive) | > 100 µM (inactive) | 9.31 µM (inactive) | 25.5 µM (inactive) | > 100 µM (inactive) | > 100 µM (inactive) | > 58.1 µM (inactive) | 28.5 µM (inactive) | 20.1 µM (inactive) | > 100 µM (inactive) | 37.2 µM (inactive) | > 100 µM (inactive) | > 63 µM (inactive) | 13.8 µM (inactive) | 50.7 µM (inactive) | 43.7 µM (inactive) | > 100 µM (inactive) |
| Brc1ccc2c(-c3nc(-c4c[nH]c5ccccc45)cs3)c[nH]c2c1 | 21 µM (inactive) | 43.1 µM (inactive) | 30.9 µM (inactive) | 27.4 µM (inactive) | 19.4 µM (inactive) | > 45.8 µM (inactive) | > 100 µM (inactive) | 34.6 µM (inactive) | 41.9 µM (inactive) | 27 µM (inactive) | 39.7 µM (inactive) | > 53.5 µM (inactive) | 30.8 µM (inactive) | 12.1 µM (inactive) | 15.6 µM (inactive) | > 61.2 µM (inactive) | > 100 µM (inactive) | 35.4 µM (inactive) | 30.9 µM (inactive) | 27.5 µM (inactive) |
| C/C(=N\NC(=S)N1CCN(c2ccccn2)CC1)c1cccc2cccnc12 | 4.29 µM (inactive) | 4.01 µM (inactive) | 6.32 µM (inactive) | 2.18 µM (inactive) | 3.02 µM (inactive) | 6.05 µM (inactive) | 9.08 µM (inactive) | 6.31 µM (inactive) | 4.71 µM (inactive) | 3.35 µM (inactive) | 3.44 µM (inactive) | 4.03 µM (inactive) | 3.67 µM (inactive) | 2.29 µM (inactive) | 4.11 µM (inactive) | 2.51 µM (inactive) | 11.4 µM (inactive) | 4.33 µM (inactive) | 3.68 µM (inactive) | 3.53 µM (inactive) |
| COc1ccc(N2C(=O)[C@H]3CC(C)c4c([nH]c5ccccc45)[C@H]3C2=O)cc1 (stereo not given in full) | 3.48 µM (inactive) | 6.92 µM (inactive) | 3.08 µM (inactive) | 2.49 µM (inactive) | 2.5 µM (inactive) | 2.15 µM (inactive) | 1.88 µM (inactive) | 0.611 µM (active) | 0.681 µM (active) | 1.63 µM (inactive) | 1.87 µM (inactive) | 5.98 µM (inactive) | 1.66 µM (inactive) | 3.48 µM (inactive) | 2.77 µM (inactive) | 2.24 µM (inactive) | 2.4 µM (inactive) | 2.87 µM (inactive) | 4.26 µM (inactive) | 1.31 µM (inactive) |
| CC(=O)OCCCCn1nncc1Cn1ccc(=O)n(Cc2cnnn2CCCCOC(C)=O)c1=O | > 100 µM (inactive) | > 100 µM (inactive) | > 100 µM (inactive) | 0.385 µM (active) | > 100 µM (inactive) | > 100 µM (inactive) | > 100 µM (inactive) | > 100 µM (inactive) | > 100 µM (inactive) | > 100 µM (inactive) | > 100 µM (inactive) | > 100 µM (inactive) | > 100 µM (inactive) | > 100 µM (inactive) | > 100 µM (inactive) | > 100 µM (inactive) | > 100 µM (inactive) | > 100 µM (inactive) | > 100 µM (inactive) | > 10 µM (inactive) |
| CN(C)CCCOCCn1c2c(c3ccccc31)CCCC2 | 15.2 µM (inactive) | 15.2 µM (inactive) | 15.2 µM (inactive) | 12.9 µM (inactive) | 16.6 µM (inactive) | 14.7 µM (inactive) | 19.7 µM (inactive) | 17.7 µM (inactive) | 14.9 µM (inactive) | 16.3 µM (inactive) | 18.2 µM (inactive) | 15.2 µM (inactive) | 12.9 µM (inactive) | 15.9 µM (inactive) | 18.7 µM (inactive) | 13.4 µM (inactive) | > 10 µM (inactive) | 18.7 µM (inactive) | 23.2 µM (inactive) | 16.7 µM (inactive) |
| CCN(CC)CCC(=O)c1ccc(Oc2ccccc2)cc1 | 15.6 µM (inactive) | 15.8 µM (inactive) | 16.7 µM (inactive) | 22.1 µM (inactive) | 17.7 µM (inactive) | 27.5 µM (inactive) | 18.2 µM (inactive) | 20.7 µM (inactive) | 16.5 µM (inactive) | 21.9 µM (inactive) | 19.7 µM (inactive) | 23.9 µM (inactive) | 39 µM (inactive) | 5.79 µM (inactive) | 18.6 µM (inactive) | 97.7 µM (inactive) | > 100 µM (inactive) | 17.1 µM (inactive) | 19 µM (inactive) | 15.9 µM (inactive) |
